Assays:
Plasmodium falciparum [1] = assay: Antimalarial activity against chloroquine-resistant Plasmodium falciparum K1; assay type: functional; conditions: read-out: ED50 (the source's name)
Plasmodium falciparum [2] = assay: Antimalarial activity against chloroquine-sensitive Plasmodium falciparum 3D7; assay type: functional; conditions: read-out: ED50 (the source's name)

CCN(CC)CCCC(C)Nc1ccnc2cc(Cl)ccc12 (configuration not stated) [CHLOROQUINE] was tested. Which EC50 (Plasmodium falciparum [1]) did it give?
Its EC50 is 290 nM.

What about the EC50 (Plasmodium falciparum [2]) of the same molecule?
Its EC50 is 8.52 nM.

— ChEMBL document CHEMBL1149698, “Metallocene-based antimalarials: an exploration into the influence of the ferrocenyl moiety on in vitro antimalarial activity in chloroquine-sensitive and chloroquine-resistant strains of Plasmodium falciparum” (Bioorg Med Chem, 2007)
